Test results: US20170355959A1, “METHODS FOR MOBILISING POPULATIONS OF STEM CELLS” (Imperial Innovations Limited, priority 2014, published 2017)
Like-named read-outs stand apart in the source and are kept apart here.

Legend:
HSPCs [1] = assay: Mobilization of HSPCs into peripheral blood (CFU-HPC assay); assay type: in vivo, mice; settings: for level of HSPC mobilization: 3 day pre-treatment with one agonist alone, beta 3 agonist and CXCR4 antagonist on day 4; for priming of HSPCs for mobilization: 4 day pre-treatment, CB1 and CB2 agonists in combination, even with FAAH inhibitor; for effect on HSPC mobilization induced by 4 day beta 3 adrenergic agonist and CXCR4 antagonist: inhibitor or antagonist given 60 minutes prior to BRL 37344, once daily for 4 days
Description: (§1) Mice were administered the β-adrenergic agonists isoproterenol (10 mg/kg i.p.), clenbuterol (5 mg/kg i.p.) and BRL 37344 (10 mg/kg i.p.), the cannabinoid receptor agonists ACEA (10 mg/kg i.p.) and GP1a (5 mg/kg i.p.), or vehicle either on 4 consecutive days or 2 hours prior to the cull. 1 hour after the last injection, mice were administered the CXCR4 antagonist AMD3100 (5 mg/kg i.p.) or vehicle. 1 hour later their blood was collected via cardiac puncture for enumeration of circulating CFU-HPCs and CFU-Fs. Mice were administered murine G-CSF (100 μg/kg i.p.) or vehicle on 4 consecutive days. On day 5, blood was collected via cardiac puncture for enumeration of circulating HSPCs.
(§2) Harvested peripheral blood or perfusate was red blood cell-lysed and 1×10^5 cells were added to tissue culture-treated petri dishes containing 1 ml of Methocult™ (M3434; StemCell Technologies) to select for CFU-HPCs. Cultures were incubated at 37° C. and quantified on day 12. Similarly, 1×10^6 bone marrow cells harvested by bone marrow flush of the hind limb femur were plated for CFU-HPCs.

CFU-Fs (MSPCs) = assay: Mobilization of MSPCs into peripheral blood (CFU-F assay); assay type: in vivo, mice; settings: for priming of MSCs for mobilization: 4 day pre-treatment, CB1 and CB2 agonists in combination, even with FAAH inhibitor
total white blood cells = settings: CXCR4 antagonist alone
Description: as §1

HPCs = assay: In situ perfusion of mouse hind limb, CFU-HPCs in perfusate; assay type: in vivo, mice
Description: (§3) Mice were administered BRL 37344 (10 mg/kg i.p.) or vehicle on 4 consecutive days. 1 hour after the last injection, the mice were anaesthetized. The femoral vein and artery were exposed and cannulated in situ immediately after the hind limb was isolated by occlusion of the surrounding arteries as previously described (Pitchford et al, 2009; Pitchford et al, 2010). Perfusion buffer was infused via the arterial cannula and removed from the venous cannula using a Minipuls Peristaltic Pump (Anachem). The hind limb was initially infused with AMD3100 (0.1 mM) or vehicle for 10 minutes using an infusion/withdrawal pump (Harvard Instruments) and was further perfused for 50 minutes with perfusion buffer (Pitchford et al, 2010). The perfusate was collected over 60 minutes and then centrifuged and resuspended in DMEM (Gibco) +20% fetal bovine serum for enumeration of CFU-HPCs and CFU-Fs.
as §2

CFU-Fs (MSCs) = assay: In situ perfusion of mouse hind limb, CFU-Fs in perfusate; assay type: in vivo, mice
Description: as §3
Harvested peripheral blood or perfusate was red blood cell-lysed and 1×10^6 cells were added to tissue culture-treated 6-well plates containing 3 ml of Mesencult™ (05502; StemCell Technologies) to select for CFU-Fs. Similarly, 1×10^6 bone marrow cells harvested by bone marrow flush of the hind limb femur were plated for CFU-Fs. Cultures were incubated at 37° C. and media was changed on day 7. Bone marrow-derived CFU-Fs were enumerated on day 13 and blood- and perfusate-derived CFU-Fs were enumerated on day 21. Blood derived-CFU-Fs were further expanded and assessed for mesenchymal lineage markers by flow cytometry and following CD45 depletion (flow cytometry sorting of CD45 negative for mesenchymal trilineage differentiation (Supplemental Experimental Procedures).

MSCs = settings: G-CSF and/or the CXCR4 antagonist; cited from earlier work
HSPCs [2] = settings: mice; cited from earlier work
HSPCs [3] = settings: humans; cited from earlier work
free fatty acids = assay: Free fatty acid assay in blood plasma; assay type: in vivo, mice; settings: pre-treatment 60 minutes prior to the b3 adrenergic agonist, 4 days
Description: as §1
Free fatty acid content in blood plasma was quantified using a serum/plasma fatty acid detection Kit (Zen Bio) and the assay was performed according to the manufacturers' instructions. Data are expressed as μM concentration of free fatty acids.

FFAs = settings: infusion directly into the vasculature of the canine femur; cited from earlier work
CXCL12 = settings: in vivo; cited from earlier work
[4] = 3 days CB1 and CB2 agonists in combination, beta 3 agonist on the fourth day prior to CXCR4 antagonist
[5] = AMD3100 alone, 5 mg/kg i.p., blood 1 hour later
[6] = vehicle pre-treated mice, hind limb infused with CXCR4 antagonist for 10 min
[7] = four day pretreatment, b3 adrenergic agonist in combination with FAAH inhibitor
[8] = acute treatment (2 h), alone or in combination with acute CXCR4 antagonist
[9] = pre-treated once daily for 4 days, then AMD3100, blood 1 hour later

CCCCC/C=C\C/C=C\C/C=C\C/C=C\CCCC(=O)NCCCl [ACEA, Arachidonyl-2-chloroethylamide]
level of HSPC mobilization (HSPCs [1]): significantly less than that achieved using these agonists in combination | HSPC mobilization (HSPCs [1]; [4]): stem cells were mobilized | priming of HSPCs for mobilization (HSPCs [1]): not sufficient to prime MSCs or HSPCs for mobilization | priming of MSCs for mobilization (CFU-Fs (MSPCs)): not sufficient to prime MSCs or HSPCs for mobilization | CFU-F mobilization (CFU-Fs (MSPCs); mouse, in vivo): stem cells were mobilized | level of CFU-F mobilization (CFU-Fs (MSPCs); mouse, in vivo): significantly less than that achieved using these agonists in combination

Cc1c(C(=O)NN2CCCCC2)nn(-c2ccc(Cl)cc2Cl)c1-c1ccc(I)cc1 [AM251]
effect on HSPC mobilization induced by 4 day beta 3 adrenergic agonist and CXCR4 antagonist (HSPCs [1]): significantly suppressed

COc1ccc(C(=O)c2c(C)n(CCN3CCOCC3)c3cc(I)ccc23)cc1 [AM630]
effect on HSPC mobilization induced by 4 day beta 3 adrenergic agonist and CXCR4 antagonist (HSPCs [1]): significantly suppressed | effect on CFU-F mobilization induced by 4 day beta 3 adrenergic agonist and CXCR4 antagonist (CFU-Fs (MSPCs); mouse, in vivo): significantly suppressed

c1cc(CN2CCCNCCNCCCNCC2)ccc1CN1CCCNCCNCCCNCC1 [AMD3100]
mobilization of HSPCs into the blood (HSPCs [1]; [5]): stimulated mobilization of HSPCs into the blood | CFU-Fs in blood (CFU-Fs (MSPCs); [5]): no colony forming units-fibroblasts (CFU-Fs; a measure of MSCs) were detectable | mobilization of total white blood cells (total white blood cells): significantly increased | HPCs mobilized from the bone marrow (HPCs; [6]): HPCs but not MSCs were mobilized from the bone marrow | MSCs mobilized from the bone marrow (CFU-Fs (MSCs); [6]): HPCs but not MSCs were mobilized from the bone marrow | mobilisation of MSCs from the bone marrow into the blood (MSCs): not effective | circulating numbers of HSPCs (HSPCs [2]): stimulates a rapid rise in circulating numbers of HSPCs | circulating numbers of HSPCs (HSPCs [3]): stimulates a rapid rise in circulating numbers of HSPCs

CC(C)(C)NCC(O)c1cc(Cl)c(N)c(Cl)c1 (centres unmarked) [Clenbuterol]
HSPC mobilization (HSPCs [1]; once daily for 4 days, alone or in combination with the CXCR4 antagonist): did not stimulate HSPC or MSC mobilization | MSC mobilization (CFU-Fs (MSPCs); mouse, in vivo): did not stimulate HSPC or MSC mobilization

Cc1ccc2c(c1)Cc1c(C(=O)NN3CCCCC3)nn(-c3ccc(Cl)cc3Cl)c1-2 [GP1a, N-(Piperidin-1-yl)-1-(2,4-dichlorophenyl)-1,4-dihydro-6-methylindeno[1,2-c]pyrazole-3-carboxamide]
level of HSPC mobilization (HSPCs [1]): significantly less than that achieved using these agonists in combination | HSPC mobilization (HSPCs [1]; [4]): stem cells were mobilized | priming of HSPCs for mobilization (HSPCs [1]): not sufficient to prime MSCs or HSPCs for mobilization | priming of MSCs for mobilization (CFU-Fs (MSPCs)): not sufficient to prime MSCs or HSPCs for mobilization | CFU-F mobilization (CFU-Fs (MSPCs); mouse, in vivo): stem cells were mobilized | level of CFU-F mobilization (CFU-Fs (MSPCs); mouse, in vivo): significantly less than that achieved using these agonists in combination

COc1ccc2cc([C@H](C)C(=O)O)ccc2c1 [Naproxen]
effect on HSPC mobilization induced by 4 day beta 3 adrenergic agonist and CXCR4 antagonist (HSPCs [1]): significant increase in the mobilization of both HSPCs or CFU-Fs

CCCCCCCCCCC[C@@H](C[C@@H]1OC(=O)[C@H]1CCCCCC)OC(=O)[C@H](CC(C)C)NC=O [Orlistat]
effect on HSPC mobilization induced by 4 day beta 3 adrenergic agonist and CXCR4 antagonist (HSPCs [1]): completely abrogated | effect on CFU-F mobilization induced by 4 day beta 3 adrenergic agonist and CXCR4 antagonist (CFU-Fs (MSPCs); inhibitor or antagonist given 60 minutes prior to BRL 37344, once daily for 4 days): completely abrogated | effect on the b3 adrenergic agonist induced increase of FFA levels in plasma (free fatty acids): attenuated

NC(=O)c1cccc(-c2cccc(OC(=O)NC3CCCCC3)c2)c1 [URB597]
effect on HSPC mobilization induced by 4 day beta 3 adrenergic agonist and CXCR4 antagonist (HSPCs [1]): significantly enhanced | effect on CFU-F mobilization induced by 4 day beta 3 adrenergic agonist and CXCR4 antagonist (CFU-Fs (MSPCs); mouse, in vivo): significantly enhanced | HPC egress from the bone marrow in response to infusion of the CXCR4 antagonist (HPCs; [7]): significantly enhanced both HPC and MSC egress from the bone marrow | MSC egress from the bone marrow in response to infusion of the CXCR4 antagonist (CFU-Fs (MSCs); [7]): significantly enhanced both HPC and MSC egress from the bone marrow

CC(C)NCC(O)c1ccc(O)c(O)c1 (centres unmarked) [isoproterenol]
circulating numbers of HSPCs (HSPCs [1]; 4 day pre-treatment alone): did not change circulating numbers of HSPCs or CFU-Fs | mobilization of HSPCs (HSPCs [1]; [8]): did not enhance the mobilization of HSPCs above AMD3100 alone | circulating HSPC numbers (HSPCs [1]; [9]): significantly elevated over treatment with the CXCR4 antagonist alone | circulating numbers of CFU-Fs (CFU-Fs (MSPCs); 4 day pre-treatment alone): did not change circulating numbers of HSPCs or CFU-Fs | CFU-Fs in the blood (CFU-Fs (MSPCs); [8]): did not result in detectable numbers of CFU-Fs in the blood | circulating CFU-Fs (CFU-Fs (MSPCs); [9]): CFU-Fs were mobilized | release of FFAs into the femoral vein (FFAs): release of FFAs into the femoral vein

B1: G-CSF: cytokine, granulocyte colony stimulating factor; murine G-CSF (PeproTech) (protein, UniProt P09920 31-208, looked up)
Granulocyte …: VPLVTVSALPPSLPLPRSFLLKSLEQVRKIQASGSVLLEQLCATYKLCHPEELVLLGHSLGIPKASLSGCSSQALQQTQCLSQLHSGLCLYQGLLQALSGISPALAPTLDLLQLDVANFATTIWQQMENLGVAPTVQPTQSAMPAFTSAFQRRAGGVLAISYLQGFLETARLALHHLA
G-CSF-induced mobilization of haematopoietic progenitor cells (HSPCs [1]; in the presence or absence of AM251 or AM630, 4 consecutive days): Independent of Cannabinoid Receptor Signalling | effect on β3-AR agonist/AMD3100 mobilisation of MSPCs (CFU-Fs (MSPCs); mouse, in vivo, ip): impairs | levels of CXCL12 in the bone marrow (CXCL12): reducing levels of CXCL12 in the bone marrow | mobilisation of MSCs from the bone marrow into the blood (MSCs): not effective
